For orientation: IC50 means the midpoint of a concentration-inhibition curve. As a reminder, the viability is a per cent measure of how many cells are alive, often set against a control.

Results on 17 molecules are retold here after ChEMBL document CHEMBL3044866, “A facile and single pot strategy for the synthesis of novel naphthyridine derivatives under microwave irradiation conditions using ZnCl2 as catalyst, evaluation of AChE inhibitory activity, and molecular modeling studies” (Med Chem Res, 2012).

One data set deals with Acetylcholinesterase (Homo sapiens, UniProt P22303). The data set is described as follows: Inhibition of AChE (unknown origin) after 10 min by Ellmans method. On the technique in general: In Ellman's method for cholinesterases, released thiocholine reacts with DTNB.
The nature of data set [1]: in vitro. The following applies: human, THLE2 cells.
Description: Cytotoxicity against Homo sapiens (human) THLE2 cells assessed as viable cells at 0.5 uM after 48 hr by MTT assay
The nature of data set [2]: in vitro. The following applies: human, THLE2 cells. This is another data set of the same source.
Description: Cytotoxicity against Homo sapiens (human) THLE2 cells assessed as viable cells at 10 uM after 48 hr by MTT assay
The nature of data set [3]: in vitro. Conditions: human, THLE2 cells. This is another data set of the same source.
Description: Cytotoxicity against Homo sapiens (human) THLE2 cells assessed as viable cells at 1 uM after 48 hr by MTT assay
The nature of data set [4]: Cytotoxicity against Homo sapiens (human) THLE2 cells assessed as cell death at 10 uM after 48 hr by MTT assay. Type of data set: cell-based. Conditions: thle-2, 48 h.

Acetylcholinesterase, sequence (P22303 whole entry): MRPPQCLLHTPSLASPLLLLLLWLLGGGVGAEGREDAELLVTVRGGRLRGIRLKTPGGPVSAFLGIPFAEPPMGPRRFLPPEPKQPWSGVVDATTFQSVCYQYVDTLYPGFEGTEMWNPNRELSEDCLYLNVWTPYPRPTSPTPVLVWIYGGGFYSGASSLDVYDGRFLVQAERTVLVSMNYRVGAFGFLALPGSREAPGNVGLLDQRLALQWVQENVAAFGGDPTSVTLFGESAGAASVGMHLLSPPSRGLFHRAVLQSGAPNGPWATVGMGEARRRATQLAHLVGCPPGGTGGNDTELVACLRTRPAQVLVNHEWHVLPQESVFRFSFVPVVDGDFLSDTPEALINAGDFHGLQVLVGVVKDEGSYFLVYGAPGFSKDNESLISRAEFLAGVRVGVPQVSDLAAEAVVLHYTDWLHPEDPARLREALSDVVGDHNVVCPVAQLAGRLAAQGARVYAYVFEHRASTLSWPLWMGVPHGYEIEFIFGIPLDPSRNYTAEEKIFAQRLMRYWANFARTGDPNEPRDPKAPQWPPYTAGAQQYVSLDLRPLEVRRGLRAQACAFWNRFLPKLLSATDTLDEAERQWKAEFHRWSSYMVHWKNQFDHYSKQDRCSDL

The molecule `Nc1c2c(nc3nc(-c4ccccc4)cc(C(F)(F)F)c13)CCCCCC2` returned an IC50 against Acetylcholinesterase of 7.69 µM.
With `Nc1c2c(nc3nc(-c4ccccc4)cc(C(F)(F)F)c13)CCC2`, at Acetylcholinesterase, the IC50 is 8.05 µM.
Consider `Nc1cc(-c2ccccc2Br)nc2nc(-c3ccccc3)cc(C(F)(F)F)c12`, for which the viability at 48 h, 0.5 µM in “in vitro [1]” stood at 98.7%. Besides, on Acetylcholinesterase, half-maximal inhibition (IC50) was put at 0.89 µM. Moreover, in the data set “in vitro [2]”, the viability at 48 h, 10 µM worked out at 99.9%. The same molecule yielded a viability at 48 h, 1 µM in the data set “in vitro [3]” of 95.9%.
Regarding `Nc1c2c(nc3nc(-c4ccccc4)cc(C(F)(F)F)c13)CCCCC2`, at Acetylcholinesterase, it took 10.1 µM to reach half-maximal inhibition (IC50).
Regarding `Nc1cc(-c2cccs2)nc2nc(-c3ccccc3)cc(C(F)(F)F)c12`, at Acetylcholinesterase, inhibition was half-maximal at 10.4 µM (IC50).
Molecule `Nc1cc(-c2cccc(F)c2)nc2nc(-c3ccccc3)cc(C(F)(F)F)c12` gave an IC50 against Acetylcholinesterase of 7.03 µM.
Regarding `CC1Cc2nc3nc(-c4ccccc4)cc(C(F)(F)F)c3c(N)c2C1` (centres undefined), the IC50 at Acetylcholinesterase worked out at 9.37 µM.
Take `Nc1cc(-c2ccc(F)cc2)nc2nc(-c3ccccc3)cc(C(F)(F)F)c12`: half-maximal inhibition against Acetylcholinesterase (IC50) required 6.58 µM.
On the same count and under the same terms, as for `Nc1cc(-c2ccccc2)nc2nc(-c3ccccc3)cc(C(F)(F)F)c12`, the figure is 7.1 µM; as for `CC(C)Cc1cc(N)c2c(C(F)(F)F)cc(-c3ccccc3)nc2n1`, 19.1 µM; as for `CC1CCc2c(nc3nc(-c4ccccc4)cc(C(F)(F)F)c3c2N)C1` (centres undefined), 3.25 µM.
Same read-out and setting: as for `COc1ccc(-c2cc(N)c3c(C(F)(F)F)cc(-c4ccccc4)nc3n2)cc1`, the figure is 8.24 µM; as for `Nc1c2c(nc3nc(-c4ccccc4)cc(C(F)(F)F)c13)-c1ccccc1CC2`, 23.1 µM.
Consider `Nc1c2c(nc3nc(-c4ccccc4)cc(C(F)(F)F)c13)-c1ccccc1C2`, for which the IC50 against Acetylcholinesterase was found to be 17.6 µM.
Take `Nc1c2c(nc3nc(-c4ccccc4)cc(C(F)(F)F)c13)CCCC2`: the IC50 against Acetylcholinesterase was found to be 0.35 µM.
`Nc1cc(-c2ccc(Cl)cc2)nc2nc(-c3ccccc3)cc(C(F)(F)F)c12`: in data set [4], the Activity is recorded as 16%. In “in vitro [1]”, this molecule gave a viability at 48 h, 0.5 µM of 97.1%. Further, the IC50 at Acetylcholinesterase is 0.52 µM. The viability at 48 h, 10 µM in the data set “in vitro [2]” came out at 84.2%. In addition, the viability at 48 h, 1 µM in the data set “in vitro [3]” amounted to 98.1%.
For `CC1CCc2nc3nc(-c4ccccc4)cc(C(F)(F)F)c3c(N)c2C1` (centres undefined), the half-maximal inhibitory concentration (IC50) at Acetylcholinesterase came to 0.51 µM.
